Results: patent US10758531B2, “Regimens and compositions for treating HIV infections and AIDS” (ViiV Healthcare Company, priority 2016, dated 2020)

How the values were obtained:
[1] = Drug-drug interactions: effect on concentration on co-administration (Table 1)
CYP enzymes = conditions: rilpivirine 25 mg once daily; cited from earlier work
[2] = biological target: human cellular DNA polymerase β (Homo sapiens, UniProt P06746); conditions: cited from earlier work
[3] = biological target: T1, human cellular DNA polymerase α (Homo sapiens, UniProt P09884); conditions: cited from earlier work
T1 sequence (P09884 1-1462): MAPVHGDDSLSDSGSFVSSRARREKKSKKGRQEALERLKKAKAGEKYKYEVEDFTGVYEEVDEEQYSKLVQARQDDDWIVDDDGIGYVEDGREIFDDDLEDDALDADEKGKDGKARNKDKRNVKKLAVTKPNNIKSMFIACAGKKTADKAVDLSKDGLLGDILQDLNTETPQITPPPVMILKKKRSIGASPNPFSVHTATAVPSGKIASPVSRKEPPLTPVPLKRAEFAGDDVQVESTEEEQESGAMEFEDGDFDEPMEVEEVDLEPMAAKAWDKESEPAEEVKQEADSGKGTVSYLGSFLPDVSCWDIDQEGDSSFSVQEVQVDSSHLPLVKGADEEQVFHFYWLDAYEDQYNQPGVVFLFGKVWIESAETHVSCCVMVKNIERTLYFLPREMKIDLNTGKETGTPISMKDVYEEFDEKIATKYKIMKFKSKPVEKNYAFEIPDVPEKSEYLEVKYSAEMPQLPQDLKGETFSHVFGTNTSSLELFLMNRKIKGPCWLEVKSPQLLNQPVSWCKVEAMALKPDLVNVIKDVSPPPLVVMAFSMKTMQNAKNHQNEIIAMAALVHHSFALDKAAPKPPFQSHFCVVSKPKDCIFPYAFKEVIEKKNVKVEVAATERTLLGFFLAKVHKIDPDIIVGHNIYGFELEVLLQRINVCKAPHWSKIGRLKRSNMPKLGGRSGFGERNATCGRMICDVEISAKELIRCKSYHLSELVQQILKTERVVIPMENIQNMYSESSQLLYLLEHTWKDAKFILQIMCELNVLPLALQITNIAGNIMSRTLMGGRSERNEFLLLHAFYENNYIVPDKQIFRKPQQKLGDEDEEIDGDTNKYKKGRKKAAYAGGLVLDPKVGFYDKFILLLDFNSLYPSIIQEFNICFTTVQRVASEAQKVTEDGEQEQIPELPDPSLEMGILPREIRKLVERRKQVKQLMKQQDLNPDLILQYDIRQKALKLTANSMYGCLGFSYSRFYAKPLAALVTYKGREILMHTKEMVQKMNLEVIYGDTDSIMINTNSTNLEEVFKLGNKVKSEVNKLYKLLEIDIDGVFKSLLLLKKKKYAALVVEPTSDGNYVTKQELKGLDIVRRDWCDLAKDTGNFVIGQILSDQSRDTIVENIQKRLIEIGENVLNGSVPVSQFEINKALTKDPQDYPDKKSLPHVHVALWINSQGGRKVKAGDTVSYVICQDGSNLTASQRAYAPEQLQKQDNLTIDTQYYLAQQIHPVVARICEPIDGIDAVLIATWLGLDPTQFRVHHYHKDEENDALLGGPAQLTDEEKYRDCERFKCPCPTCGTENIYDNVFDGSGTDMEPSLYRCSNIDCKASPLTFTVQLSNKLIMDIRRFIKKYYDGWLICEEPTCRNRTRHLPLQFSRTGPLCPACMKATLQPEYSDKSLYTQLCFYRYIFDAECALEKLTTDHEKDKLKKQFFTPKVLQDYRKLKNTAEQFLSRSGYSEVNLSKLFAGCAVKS

CYP3A = conditions: cited from earlier work
[4] = biological target: T2, human cellular DNA polymerase γ (Homo sapiens, UniProt P54098); conditions: cited from earlier work
T2 sequence (P54098 1-1239): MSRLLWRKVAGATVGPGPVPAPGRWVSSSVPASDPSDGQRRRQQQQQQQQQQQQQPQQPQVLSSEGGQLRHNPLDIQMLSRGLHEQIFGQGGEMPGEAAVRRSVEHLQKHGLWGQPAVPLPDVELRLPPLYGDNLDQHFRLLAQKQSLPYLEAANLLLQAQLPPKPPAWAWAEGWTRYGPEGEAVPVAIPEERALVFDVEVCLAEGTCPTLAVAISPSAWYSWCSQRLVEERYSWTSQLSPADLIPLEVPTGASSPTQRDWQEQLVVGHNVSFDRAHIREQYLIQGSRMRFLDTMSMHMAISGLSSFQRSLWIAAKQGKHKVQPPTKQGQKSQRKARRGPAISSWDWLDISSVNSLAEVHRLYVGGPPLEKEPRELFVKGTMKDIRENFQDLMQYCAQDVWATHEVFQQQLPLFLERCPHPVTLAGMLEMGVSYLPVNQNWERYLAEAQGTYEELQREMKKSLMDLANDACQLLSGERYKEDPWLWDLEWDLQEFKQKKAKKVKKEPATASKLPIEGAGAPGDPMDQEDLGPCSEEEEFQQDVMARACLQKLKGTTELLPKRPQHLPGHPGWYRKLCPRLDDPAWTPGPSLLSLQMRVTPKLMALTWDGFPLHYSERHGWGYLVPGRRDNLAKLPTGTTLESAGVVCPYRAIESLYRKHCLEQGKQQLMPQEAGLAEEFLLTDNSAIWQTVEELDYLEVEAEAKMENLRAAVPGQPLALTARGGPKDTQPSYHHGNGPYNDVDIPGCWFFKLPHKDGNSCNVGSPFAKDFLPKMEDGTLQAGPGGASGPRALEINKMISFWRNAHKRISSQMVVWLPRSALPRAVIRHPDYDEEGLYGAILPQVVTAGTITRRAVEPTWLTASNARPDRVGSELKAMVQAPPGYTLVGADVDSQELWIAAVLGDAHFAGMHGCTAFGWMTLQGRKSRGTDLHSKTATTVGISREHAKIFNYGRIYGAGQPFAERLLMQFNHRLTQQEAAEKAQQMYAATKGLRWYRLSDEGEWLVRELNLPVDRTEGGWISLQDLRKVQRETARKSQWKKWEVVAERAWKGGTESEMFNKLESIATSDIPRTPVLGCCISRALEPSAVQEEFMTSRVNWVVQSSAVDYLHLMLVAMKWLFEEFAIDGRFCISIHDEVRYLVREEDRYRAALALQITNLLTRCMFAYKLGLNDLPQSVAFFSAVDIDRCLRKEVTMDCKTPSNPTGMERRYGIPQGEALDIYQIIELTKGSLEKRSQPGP

UGT1A3 = biological target: T3, UGT1A3 (Homo sapiens, UniProt P35503); conditions: in vitro; cited from earlier work
T3 sequence (P35503 29-534): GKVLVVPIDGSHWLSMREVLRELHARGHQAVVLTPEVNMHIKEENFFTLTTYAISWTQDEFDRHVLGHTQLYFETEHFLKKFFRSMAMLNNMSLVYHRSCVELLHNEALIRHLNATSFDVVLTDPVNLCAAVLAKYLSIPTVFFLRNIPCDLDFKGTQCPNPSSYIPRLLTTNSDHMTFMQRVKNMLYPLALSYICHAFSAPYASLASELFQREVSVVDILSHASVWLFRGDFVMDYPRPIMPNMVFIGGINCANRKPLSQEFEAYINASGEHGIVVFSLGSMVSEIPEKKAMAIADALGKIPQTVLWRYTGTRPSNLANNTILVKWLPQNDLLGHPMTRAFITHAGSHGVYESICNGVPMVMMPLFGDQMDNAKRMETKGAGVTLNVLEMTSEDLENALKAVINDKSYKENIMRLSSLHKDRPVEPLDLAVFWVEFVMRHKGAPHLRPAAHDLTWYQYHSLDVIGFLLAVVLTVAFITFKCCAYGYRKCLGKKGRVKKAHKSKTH

UGT1A9 = biological target: T4, UGT1A9 (Homo sapiens, UniProt O60656); conditions: in vitro; cited from earlier work
T4 sequence (O60656 26-530): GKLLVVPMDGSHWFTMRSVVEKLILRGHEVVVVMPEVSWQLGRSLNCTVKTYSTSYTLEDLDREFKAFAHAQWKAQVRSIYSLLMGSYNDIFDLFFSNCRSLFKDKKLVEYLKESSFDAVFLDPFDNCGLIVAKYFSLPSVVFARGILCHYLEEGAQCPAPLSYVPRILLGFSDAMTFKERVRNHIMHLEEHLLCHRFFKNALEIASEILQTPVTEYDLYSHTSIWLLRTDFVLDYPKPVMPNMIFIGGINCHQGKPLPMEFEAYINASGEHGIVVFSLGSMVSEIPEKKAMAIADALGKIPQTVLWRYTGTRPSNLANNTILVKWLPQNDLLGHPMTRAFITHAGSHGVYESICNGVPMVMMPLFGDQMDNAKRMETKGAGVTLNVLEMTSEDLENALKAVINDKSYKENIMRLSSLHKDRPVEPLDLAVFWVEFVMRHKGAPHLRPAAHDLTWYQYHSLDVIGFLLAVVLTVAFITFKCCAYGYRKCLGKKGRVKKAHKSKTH

CYP3A4 = CYP3A4 (Homo sapiens, UniProt P08684); conditions: cited from earlier work
Chain of CYP3A4 (P08684 whole entry): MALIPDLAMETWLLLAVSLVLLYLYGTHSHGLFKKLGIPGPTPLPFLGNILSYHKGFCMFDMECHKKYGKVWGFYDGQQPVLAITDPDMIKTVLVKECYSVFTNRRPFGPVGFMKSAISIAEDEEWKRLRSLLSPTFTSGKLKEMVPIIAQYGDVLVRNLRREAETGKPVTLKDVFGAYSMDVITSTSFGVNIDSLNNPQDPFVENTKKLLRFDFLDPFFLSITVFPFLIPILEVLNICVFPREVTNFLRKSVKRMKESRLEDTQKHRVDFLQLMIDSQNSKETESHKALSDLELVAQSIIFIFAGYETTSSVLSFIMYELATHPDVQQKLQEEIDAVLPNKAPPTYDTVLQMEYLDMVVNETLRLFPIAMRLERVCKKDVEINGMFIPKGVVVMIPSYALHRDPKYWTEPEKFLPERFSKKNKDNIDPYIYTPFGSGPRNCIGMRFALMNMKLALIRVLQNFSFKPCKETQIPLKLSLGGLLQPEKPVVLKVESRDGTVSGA

BCRP = biological target: T5, BCRP (Homo sapiens, UniProt Q9UNQ0); conditions: in vitro; cited from earlier work
T5 sequence (Q9UNQ0 1-655): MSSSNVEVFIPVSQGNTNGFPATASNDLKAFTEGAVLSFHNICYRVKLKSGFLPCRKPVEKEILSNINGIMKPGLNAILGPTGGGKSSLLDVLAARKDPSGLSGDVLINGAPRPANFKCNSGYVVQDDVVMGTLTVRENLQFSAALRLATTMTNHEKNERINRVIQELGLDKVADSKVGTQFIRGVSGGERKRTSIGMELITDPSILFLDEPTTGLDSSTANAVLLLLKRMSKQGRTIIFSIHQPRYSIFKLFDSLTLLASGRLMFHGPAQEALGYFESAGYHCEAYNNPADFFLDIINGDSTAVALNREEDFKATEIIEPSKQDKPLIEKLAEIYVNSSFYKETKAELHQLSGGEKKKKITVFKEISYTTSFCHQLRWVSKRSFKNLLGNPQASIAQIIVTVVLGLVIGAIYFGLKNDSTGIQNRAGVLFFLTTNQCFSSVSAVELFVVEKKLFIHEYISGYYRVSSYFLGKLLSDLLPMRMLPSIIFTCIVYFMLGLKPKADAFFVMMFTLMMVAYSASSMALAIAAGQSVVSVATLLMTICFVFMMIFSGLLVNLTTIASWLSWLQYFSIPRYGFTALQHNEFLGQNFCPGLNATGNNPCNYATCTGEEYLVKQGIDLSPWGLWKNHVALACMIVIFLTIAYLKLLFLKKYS

P-gp = P-gp (Homo sapiens, UniProt P08183); conditions: in vitro; cited from earlier work
Chain of P-gp (P08183 whole entry): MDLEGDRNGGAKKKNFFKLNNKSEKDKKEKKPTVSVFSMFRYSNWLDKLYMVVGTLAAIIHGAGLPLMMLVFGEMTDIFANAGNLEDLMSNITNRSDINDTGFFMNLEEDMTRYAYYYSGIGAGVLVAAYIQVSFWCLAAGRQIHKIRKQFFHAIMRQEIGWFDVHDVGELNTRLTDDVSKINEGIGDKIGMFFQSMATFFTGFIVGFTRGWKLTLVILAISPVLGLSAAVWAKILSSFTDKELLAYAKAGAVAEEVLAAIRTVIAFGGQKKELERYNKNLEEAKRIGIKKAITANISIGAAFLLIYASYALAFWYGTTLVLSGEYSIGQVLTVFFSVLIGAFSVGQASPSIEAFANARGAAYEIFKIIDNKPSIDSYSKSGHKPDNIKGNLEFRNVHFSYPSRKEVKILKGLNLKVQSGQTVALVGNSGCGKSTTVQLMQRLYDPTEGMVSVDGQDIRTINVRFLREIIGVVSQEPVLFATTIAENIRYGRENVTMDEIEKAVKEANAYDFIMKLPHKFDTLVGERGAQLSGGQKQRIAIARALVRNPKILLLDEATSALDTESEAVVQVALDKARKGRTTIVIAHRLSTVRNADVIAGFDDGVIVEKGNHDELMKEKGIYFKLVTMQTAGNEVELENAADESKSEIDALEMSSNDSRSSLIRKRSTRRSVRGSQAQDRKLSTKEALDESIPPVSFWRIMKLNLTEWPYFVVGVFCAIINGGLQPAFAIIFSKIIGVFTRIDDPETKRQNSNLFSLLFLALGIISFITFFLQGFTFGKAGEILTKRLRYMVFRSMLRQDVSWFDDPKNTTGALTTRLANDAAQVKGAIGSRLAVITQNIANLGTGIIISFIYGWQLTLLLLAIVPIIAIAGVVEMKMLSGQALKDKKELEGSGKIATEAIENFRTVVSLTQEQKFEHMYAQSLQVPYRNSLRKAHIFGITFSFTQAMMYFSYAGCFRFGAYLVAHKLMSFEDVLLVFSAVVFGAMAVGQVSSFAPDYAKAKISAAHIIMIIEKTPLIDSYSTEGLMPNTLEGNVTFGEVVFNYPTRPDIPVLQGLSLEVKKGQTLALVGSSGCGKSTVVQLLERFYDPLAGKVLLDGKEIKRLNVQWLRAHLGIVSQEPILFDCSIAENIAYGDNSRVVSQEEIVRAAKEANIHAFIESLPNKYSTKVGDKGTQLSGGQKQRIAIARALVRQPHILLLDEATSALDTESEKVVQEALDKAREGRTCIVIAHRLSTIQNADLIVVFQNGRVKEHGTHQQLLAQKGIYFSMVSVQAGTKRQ

UGT1A1 = biological target: T6, UGT1A1 (Homo sapiens, UniProt P22309); conditions: cited from earlier work
T6 sequence (P22309 26-533): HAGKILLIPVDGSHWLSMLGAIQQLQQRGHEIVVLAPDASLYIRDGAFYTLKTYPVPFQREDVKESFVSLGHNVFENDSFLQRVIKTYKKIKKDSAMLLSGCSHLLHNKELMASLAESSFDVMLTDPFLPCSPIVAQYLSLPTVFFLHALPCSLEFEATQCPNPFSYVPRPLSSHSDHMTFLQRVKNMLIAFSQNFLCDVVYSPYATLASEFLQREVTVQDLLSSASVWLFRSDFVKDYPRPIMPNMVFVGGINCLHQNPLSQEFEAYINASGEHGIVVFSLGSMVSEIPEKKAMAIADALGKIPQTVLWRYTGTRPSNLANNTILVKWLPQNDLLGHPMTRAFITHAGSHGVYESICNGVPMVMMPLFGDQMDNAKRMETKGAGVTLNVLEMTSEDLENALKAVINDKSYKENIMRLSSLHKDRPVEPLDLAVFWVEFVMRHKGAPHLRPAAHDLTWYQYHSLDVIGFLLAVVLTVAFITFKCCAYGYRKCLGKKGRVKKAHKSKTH

## CCC(=O)C(CC(C)N(C)C)(c1ccccc1)c1ccccc1 (centres unmarked) [Methadone]
[1]; concomitant use of methadone and a composition of the invention
  Effect on Concentration: ↔Methadone

## CO[C@H]1/C=C/O[C@@]2(C)Oc3c(C)c(O)c4c(c3C2=O)C2=NC3(CCN(CC(C)C)CC3)NC2=C(NC(=O)/C(C)=C\C=C\[C@H](C)[C@H](O)[C@@H](C)[C@@H](O)[C@@H](C)[C@H](OC(C)=O)[C@@H]1C)C4=O [Rifabutin]
[1]; concomitant use of rifabutin and a composition of the invention
  Effect on Concentration: ↔Rifabutin

## CN(C)C(=N)N=C(N)N [Metformin]
[1]; concomitant use of metformin and a composition of the invention
  Effect on Concentration: ↑Metformin

## Cc1cc(/C=C/C#N)cc(C)c1Nc1ccnc(Nc2ccc(C#N)cc2)n1 [Rilpivirine, 4-[[4-[[4-[(E)-2-cyanoethenyl]-2,6-dimethylphenyl]amino]-2-pyrimidinyl]amino]benzonitrile]
CYP enzymes
  Effect on the exposure of medicinal products metabolized by CYP enzymes: not likely to have a clinically relevant effect
[2]
  Inhibition of human cellular DNA polymerase β: does not inhibit
[3]
  Inhibition of human cellular DNA polymerase α: does not inhibit
CYP3A
  Metabolism by CYP3A: primarily metabolized
[4]
  Inhibition of human cellular DNA polymerase γ: does not inhibit

## O=C(NCc1c(F)cc(F)cc1F)c1cn2c(c(O)c1=O)C(=O)N1[C@H]3CC[C@H](C3)O[C@@H]1C2 [Bictegravir, (2R,5S,13aR)-8-hidroxi-7,9-dioxo-N-[(2,4,6-trifluorofenil)metil]-2,3,4,5,7,9,13,13a-octahidro-2,5-metanopirido [1′,2′:4,5]pirazino[2,1-b][1,3]oxazepina-10-carboxamida]
UGT1A3
  Substrate of UGT1A3: substrate
UGT1A9
  Substrate of UGT1A9: substrate
CYP3A4
  Metabolic clearance through CYP3A4: metabolically cleared
BCRP
  Substrate of BCRP: substrate
P-gp
  Substrate of P-gp: substrate
UGT1A1
  Metabolic clearance through UGT1A1: metabolically cleared
